Measurements reported in patent US20160303189A1, “Applications of Recombined Ganoderma Lucidum Immunoregulation Protein in Preparing Drugs for Treating Tissue Fibrosis” (priority 2014, published 2016).

How the values were obtained:
[1] = tested on: myocardial tissue of mice (myocardial fibrosis model); assay: Establishment of Dox mice myocardial fibrosis models, histological grading;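 note: mice given Dox by injection twice weekly, hearts fixed in paraformaldehyde and scored histologically, with sampling on days 35, 42 and 49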
Method: 100 female Kunming mice weighed 18-22 g were picked and divided into 5 groups: saline group, model group 1 (Dox 1 mg/kg), model group 2 (Dox 2 mg/kg), model group 3 (Dox 3 mg/kg) model group 4 (Dox 4 mg/kg), the number of mice in each group were 15, 15, 25, 30 and 15. Twice a week, every mouse was injected 2000 every time, in which 1 mg/kg Dox, 2 mg/kg Dox, 3 mg/kg Dox or 4 mg/kg Dox was dissolved.
The activities of the mice were closely watched and deaths of the mice were recorded every day at 5:00 pm and 9:00 am. Three days, the 35th the 42nd and the 49th day were chosen to take samples. After deaths, hearts of the mice were taken and rinsed with cold PBS and placed on a clean dry filter paper, then they were put into paraformaldehyde solution to be fixed. The models to assess myocardial fibrosis were established according to histological analysis, the changes in ventricular cavity of the mice, perivascular fibrosis, interstitial fibrosis, and vacuole formation and other changes were taken into consideration to determine whether the model was useable.

[2] = tested on: mice (renal fibrosis model); assay: Model making of renal fibrosis of mice with cisplatin (CDDP), survival and weight; type: in vivo
Method: The number of mice in each group was 12, 12 and 12. They were given intraperitoneal injections for 200 μl/per time/per mouse for 5 consecutive days, and the injectionvolumes contained the appropriate doses of cisplatin (CDDP). On the 1st, the 3rd, the 5th, the 7th, the 14th and the 28th days the mice were weighed and the statistics for the survival rates in each group were recorded.

[3] = tested on: BLM-induced pulmonary fibrosis; assay: Effect of rLZ-8 on BLM-induced pulmonary fibrosis of mice, Szapiel grading; type: in vivo; details: Group F: positive drug dexamethasone 4 mg/kg injected, n=12
Text: Experiment groups: there were 7 groups in the experiment and 12 mice in each group. The groups were a saline group (group A), a model group (group B), a low treatment dose group (group C), a medium dose group (group D), a high dose group (group E), a positive control group (group F) and an administration group one week after modeling (group G). The process of modeling was the same as the embodiment 1.
Treating process: groups B, C, D, E, F and G all adopted low BLM dose for modeling. Group A and Group B were injected with saline for serving as contrast groups; Groups C, D and E were injected with rLZ-8 each day for treatment. Mice in these groups were weighed every 3 days and drugs were administrated according to weights of the mice. The dose for Group C was 3.84375 μg/kg, the dose for Group D was 7.6875 μg/kg, the dose for Group E was 19.21875 μg/kg, Group F were injected with positive drug dexamethasone 4 mg/kg, Group G were injected with rLZ-8 for treatment 1 week after modeling and the dose was 7.6875 μg/kg.
On the 14th day and the 21st day, 6 mice were randomly picked and killed in each group. Lungs of the mice were taken out to watch the color of the lungs, if the surface was intact or not, and the changes in the lung surface; parts of the lung tissue were paraffin sectioned and HE stained to be examined histologically; other parts were done with RT-PCR to examine the RNA level. According to histological analysis, RNA level, protein level and the change in the amount of inflammatory cells, the grades of fibrosis were decided.

[4] = Dox accumulated dose 30, 10 mice
[5] = Dox accumulated dose 36, 10 mice
[6] = Dox accumulated dose 42 (3 mg/kg twice a week for 7 weeks), 9 mice

Structure (SMILES): COc1cccc2c1C(=O)c1c(O)c3c(c(O)c1C2=O)C[C@@](O)(C(=O)CO)C[C@@H]3O[C@H]1C[C@H](N)[C@H](O)[C@H](C)O1 [Doxorubicin]
- Interstitial Fibrosis grade 0, number of mice [1, 4]: 9
- Interstitial Fibrosis grade +++, number of mice [1, 4]: 0
- Interstitial Fibrosis grade ++, number of mice [1, 4]: 0
- Interstitial Fibrosis grade +, number of mice [1, 4]: 1
- Number of deaths [1, 4]: 0
- Perivascular Fibrosis grade 0, number of mice [1, 4]: 7
- Perivascular Fibrosis grade +++, number of mice [1, 4]: 0
- Perivascular Fibrosis grade ++, number of mice [1, 4]: 0
- Perivascular Fibrosis grade +, number of mice [1, 4]: 3
- Vacuolization grade 0, number of mice [1, 4]: 10
- Vacuolization grade +++, number of mice [1, 4]: 0
- Vacuolization grade ++, number of mice [1, 4]: 0
- Vacuolization grade +, number of mice [1, 4]: 0
- Interstitial Fibrosis grade 0, number of mice [1, 5]: 10
- Interstitial Fibrosis grade +++, number of mice [1, 5]: 0
- Interstitial Fibrosis grade ++, number of mice [1, 5]: 0
- Interstitial Fibrosis grade +, number of mice [1, 5]: 0
- Number of deaths [1, 5]: 0
- Perivascular Fibrosis grade 0, number of mice [1, 5]: 7
- Perivascular Fibrosis grade +++, number of mice [1, 5]: 0
- Perivascular Fibrosis grade ++, number of mice [1, 5]: 1
- Perivascular Fibrosis grade +, number of mice [1, 5]: 2
- Vacuolization grade 0, number of mice [1, 5]: 9
- Vacuolization grade +++, number of mice [1, 5]: 0
- Vacuolization grade ++, number of mice [1, 5]: 0
- Vacuolization grade +, number of mice [1, 5]: 1
- Interstitial Fibrosis grade 0, number of mice [1, 6]: 5
- Interstitial Fibrosis grade +++, number of mice [1, 6]: 1
- Interstitial Fibrosis grade ++, number of mice [1, 6]: 2
- Interstitial Fibrosis grade +, number of mice [1, 6]: 1
- Number of deaths [1, 6]: 0
- Perivascular Fibrosis grade 0, number of mice [1, 6]: 4
- Perivascular Fibrosis grade +++, number of mice [1, 6]: 1
- Perivascular Fibrosis grade ++, number of mice [1, 6]: 2
- Perivascular Fibrosis grade +, number of mice [1, 6]: 2
- Vacuolization grade 0, number of mice [1, 6]: 4
- Vacuolization grade +++, number of mice [1, 6]: 1
- Vacuolization grade ++, number of mice [1, 6]: 2
- Vacuolization grade +, number of mice [1, 6]: 2

Structure (SMILES): N.N.[Cl][Pt][Cl] [cisplatin]
- survival rate ([2]; CDDP 5 mg/kg intraperitoneal, 5 consecutive days, 28th day): 90%
- survival rate ([2]; CDDP 7 mg/kg intraperitoneal, 5 consecutive days, 7th day): 60%
- mice survived ([2]; CDDP 7 mg/kg intraperitoneal, 5 consecutive days, 28th day): 30%
- effect on weight of mice ([2]; cisplatin 5 mg/kg doses): weight loss

Structure (SMILES): C[C@@H]1C[C@H]2[C@@H]3CCC4=CC(=O)C=C[C@]4(C)[C@@]3(F)[C@@H](O)C[C@]2(C)[C@@]1(O)C(=O)CO [dexamethasone]
- number of mice with Szapiel grade 0 (no fibrosis) [3]: 0
- number of mice with Szapiel grade I (mild) [3]: 3
- number of mice with Szapiel grade II (medium) [3]: 5
- number of mice with Szapiel grade III (severe) [3]: 4
